Molecules are shown by their SMILES.

For assay [1], the target named is T1, lipase from Pseudomonas cepacia (PCL) (Burkholderia cepacia, UniProt P22088).
T1 construct: R.D. Schmid, University of Stuttgart (obtained, not a commercial purchase)
The assay can be described thus: Inhibition of lipase activity in Triton X-100 micelles, continuous fluorescence method. The assay is classed as biochemical. The following applies: incubation 4° C., 16 hrs; FIG. 3b. Here is the method:
(§1) Inhibition of lipase activity by the water-insoluble phosphonates was performed in Triton X-100 micelles (2 mM final concentration) and measured by a continuous fluorescence method according to Duque et al, (J. Lipid Res. 37, 868-876 (1996)) using 3-O-hexadecyl-2-pyrenedecanoyl-1-trinitrophenylaminododecanoyl-sn-glycerol as a substrate. Lipase activity was determined at 30° C. from the dequenching of pyrene fluorescence at 378 nm (excitation at 342 nm, slit widths 5.0 nm each) (the initial linear increase in fluorescence intensity after addition of the lipase was used to measure enzyme activity). The measurements were performed in ethanol-water (1:3 by vol.) as a solvent.
(§2) Triton X-100 specially purified for membrane research (Hofmann La Roche) (10 μL of a 100 mM stock solution in chloroform) and the appropriate volume of a phosphonate solution in chloroform were mixed and the solvent was removed under a stream of nitrogen. The residue was dispersed in an 100 μM Tris-HCl puffer (pH 7.40 at 37° C.) by vigorous vortexing followed by addition of an aliquot of a lipase solution, giving a total volume of 500 μL. Incubations were performed at 4° C. The percentage of inhibition after 16 hrs in the reaction mixture was determined by measuring the residual lipase activity of appropriate aliquots (3 μL) as indicated above. Controls were run in parallel under identical conditions but in the absence of inhibitors.
(§3) The novel compounds were tested with respect to their ability to inhibit three selected microbial lipases with different substrate preferences. The lipase from Rhizopus oryzae was efficiently inactivated by the perylene- and NBD-inhibitors (FIG. 3a) at 4° C. for 16 hrs in 100 μM Tris-HCl puffer at inhibitor and lipase concentrations of 1.0 mM and 0.1 mM, respectively. […] This is in line with the assumption that lipases prefer long-chain glycerol esters as substrates, and evidently inhibitors as well. […] In contrast, the Pseudomonas species lipase was quantitatively inactivated by all synthesized organophosphonates (FIG. 3c).

The target in assay [2] is T2, lipase from Rhizopus oryzae (ROL) (Rhizopus oryzae, UniProt P61872).
T2 construct: F. Spener and L. Haalck, University of Münster (gift)
T2 sequence (P61872 96-392): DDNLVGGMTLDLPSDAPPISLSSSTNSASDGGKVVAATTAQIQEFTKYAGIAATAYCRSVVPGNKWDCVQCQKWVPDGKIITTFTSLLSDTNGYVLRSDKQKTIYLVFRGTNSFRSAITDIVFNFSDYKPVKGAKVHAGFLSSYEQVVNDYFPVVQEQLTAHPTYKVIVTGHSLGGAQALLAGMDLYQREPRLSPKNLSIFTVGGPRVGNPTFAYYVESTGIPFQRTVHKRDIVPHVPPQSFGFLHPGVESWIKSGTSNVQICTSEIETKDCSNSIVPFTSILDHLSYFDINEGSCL
The assay is described as above. The assay is classed as biochemical. The following applies: 4° C. for 16 hrs, 100 μM Tris-HCl puffer, inhibitor 1.0 mM, lipase 0.1 mM; FIG. 3a. The method, then: as §1, §2, §3

T1 sequence (P22088 45-364): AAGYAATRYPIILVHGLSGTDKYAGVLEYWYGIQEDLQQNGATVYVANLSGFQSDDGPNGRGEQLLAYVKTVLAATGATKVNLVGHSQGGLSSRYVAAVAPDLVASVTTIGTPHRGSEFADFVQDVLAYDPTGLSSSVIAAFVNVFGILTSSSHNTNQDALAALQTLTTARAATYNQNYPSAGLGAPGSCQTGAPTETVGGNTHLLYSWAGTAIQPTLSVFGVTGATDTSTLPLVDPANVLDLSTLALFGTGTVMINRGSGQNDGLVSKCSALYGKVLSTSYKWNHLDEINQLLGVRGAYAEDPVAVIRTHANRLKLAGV

For the molecule `CCCCCCCCOCC(COP(=O)(CCCCCC)Oc1ccc([N+](=O)[O-])cc1)NC(=O)CCCc1ccc2c3cccc4cccc(c5cccc1c52)c43` (stereo not drawn) [XXII, 2-(4-(3-Perylenyl)butanoyl)amino-2-deoxy-3-O-octyl-sn-glycero-1-O-hexylphosphonate p-nitrophenyl ester], the “inhibition of lipase from Pseudomonas cepacia” value in assay [1] is “much more potent inhibitor”.

For `CCCCCCCCCCCCCCCCOCC(COP(=O)(CCCCCC)Oc1ccc([N+](=O)[O-])cc1)NC(=O)CCCCCCCc1ccc2c3cccc4cccc(c5cccc1c52)c43` (stereo not drawn) [XXIII, 2-(8-(3-Perylenyl)octanoyl)amino-2-deoxy-3-O-hexadecyl-sn-glycero-1-O-hexylphosphonate p-nitrophenyl ester], in assay [2], the “inhibition (inactivation) of lipase from Rhizopus oryzae” value is recorded as “somewhat more active”.

As to `CCCCCCCCCCCCCCCCOCC(COP(=O)(CCCCCC)Oc1ccc([N+](=O)[O-])cc1)NC(=O)CCCCCCCCCCCNc1ccc([N+](=O)[O-])c2nonc12` (stereo not drawn) [XXV, 2-(NBD-dodecanoyl)amino-2-deoxy-3-O-hexadecyl-sn-glycero-1-O-hexylphosphonate p-nitrophenyl ester], the “inhibition (inactivation) of lipase from Rhizopus oryzae” value in assay [2] was “slightly more effective”.

The values are drawn from patent US7772402B2, “Optically detectable organophosphonates” (Austria Wirtschaftsservice Gesellschaft Mit Beschrankter …, priority 2003, dated 2010).
